Measured values from patent US20260365670A1, “EGFR INHIBITORS AND USES THEREOF” (DIZAL (JIANGSU) PHARMACEUTICAL CO., LTD., priority 2022, published 2026).
Where two headings read alike, the source gives them in different places.

Tests used:
[1] = molecular target: T1, EGFR Exon19Del/T790M (Homo sapiens, UniProt P00533, DEL746-750/T790M); test: Inhibition of EGFR Exon19Del/T790M biochemical enzymatic activity (HTRF); details: EGFR Del19-T790M, 1 mM ATP, 1 h, room temperature, read-out: IC50 (nM) @Del19-T790M
T1 construct: purchased Carna Bio
T1 sequence (P00533 with tags, fused parts or gaps DEL746-750/T790M limits assumed): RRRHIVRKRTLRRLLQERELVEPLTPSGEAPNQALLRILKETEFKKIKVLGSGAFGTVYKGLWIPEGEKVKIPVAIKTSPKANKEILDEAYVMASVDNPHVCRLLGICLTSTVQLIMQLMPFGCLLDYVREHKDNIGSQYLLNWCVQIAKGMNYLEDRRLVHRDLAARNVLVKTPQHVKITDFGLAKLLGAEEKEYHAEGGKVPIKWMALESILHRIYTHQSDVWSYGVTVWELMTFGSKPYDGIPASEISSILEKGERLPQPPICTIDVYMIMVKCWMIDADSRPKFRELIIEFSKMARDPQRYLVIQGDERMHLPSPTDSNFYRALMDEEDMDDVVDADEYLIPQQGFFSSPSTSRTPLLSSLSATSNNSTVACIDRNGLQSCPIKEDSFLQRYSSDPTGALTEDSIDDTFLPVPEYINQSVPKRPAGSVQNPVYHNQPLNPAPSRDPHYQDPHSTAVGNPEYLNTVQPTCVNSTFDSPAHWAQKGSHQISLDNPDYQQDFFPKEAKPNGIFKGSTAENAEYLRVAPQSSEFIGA
How it was run: (§1)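 Kinase activity is measured by HTRF detection of biotinylated TK substrate (1 μM) phosphorylation at 1 mM ATP. Incubation lasts 1 h at room temperature before an EDTA stop, and IC50 is fitted with a four-parameter logistic model.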

[2] = molecular target: T2, EGFR Exon19Del (Homo sapiens, UniProt P00533, DEL746-750); test: Inhibition of EGFR Exon19Del biochemical enzymatic activity (HTRF); details: EGFR Del19, 1 mM ATP, 1 h, room temperature, read-out: IC50 @Del19
T2 construct: purchased Carna Bio
T2 sequence (P00533 with tags, fused parts or gaps DEL746-750 limits assumed): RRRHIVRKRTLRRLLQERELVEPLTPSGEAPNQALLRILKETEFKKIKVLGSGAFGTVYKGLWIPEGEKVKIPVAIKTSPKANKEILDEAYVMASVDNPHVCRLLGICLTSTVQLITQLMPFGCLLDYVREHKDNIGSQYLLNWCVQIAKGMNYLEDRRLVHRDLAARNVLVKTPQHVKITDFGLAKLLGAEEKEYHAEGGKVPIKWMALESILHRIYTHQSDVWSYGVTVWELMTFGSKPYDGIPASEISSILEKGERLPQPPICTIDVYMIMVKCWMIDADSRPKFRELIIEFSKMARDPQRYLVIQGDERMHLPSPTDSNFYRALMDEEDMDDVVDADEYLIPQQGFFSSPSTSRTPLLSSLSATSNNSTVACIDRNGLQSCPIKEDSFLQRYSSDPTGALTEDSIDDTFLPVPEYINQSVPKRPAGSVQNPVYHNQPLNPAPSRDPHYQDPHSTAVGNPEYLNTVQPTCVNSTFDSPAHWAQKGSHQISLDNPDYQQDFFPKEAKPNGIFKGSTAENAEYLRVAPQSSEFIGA
How it was run: as §1

[3] = molecular target: T3, EGFR (C797S L858R) (Homo sapiens, UniProt P00533, C797S/L858R); test: Inhibition of EGFR (C797S L858R) biochemical enzymatic activity (HTRF); details: EGFR L858-C797S, 1 mM ATP, 1 h, room temperature, read-out: IC50 (nM) @L858-C797S
T3 construct: purchased signalchem
T3 sequence (P00533 25-1210 C797S/L858R): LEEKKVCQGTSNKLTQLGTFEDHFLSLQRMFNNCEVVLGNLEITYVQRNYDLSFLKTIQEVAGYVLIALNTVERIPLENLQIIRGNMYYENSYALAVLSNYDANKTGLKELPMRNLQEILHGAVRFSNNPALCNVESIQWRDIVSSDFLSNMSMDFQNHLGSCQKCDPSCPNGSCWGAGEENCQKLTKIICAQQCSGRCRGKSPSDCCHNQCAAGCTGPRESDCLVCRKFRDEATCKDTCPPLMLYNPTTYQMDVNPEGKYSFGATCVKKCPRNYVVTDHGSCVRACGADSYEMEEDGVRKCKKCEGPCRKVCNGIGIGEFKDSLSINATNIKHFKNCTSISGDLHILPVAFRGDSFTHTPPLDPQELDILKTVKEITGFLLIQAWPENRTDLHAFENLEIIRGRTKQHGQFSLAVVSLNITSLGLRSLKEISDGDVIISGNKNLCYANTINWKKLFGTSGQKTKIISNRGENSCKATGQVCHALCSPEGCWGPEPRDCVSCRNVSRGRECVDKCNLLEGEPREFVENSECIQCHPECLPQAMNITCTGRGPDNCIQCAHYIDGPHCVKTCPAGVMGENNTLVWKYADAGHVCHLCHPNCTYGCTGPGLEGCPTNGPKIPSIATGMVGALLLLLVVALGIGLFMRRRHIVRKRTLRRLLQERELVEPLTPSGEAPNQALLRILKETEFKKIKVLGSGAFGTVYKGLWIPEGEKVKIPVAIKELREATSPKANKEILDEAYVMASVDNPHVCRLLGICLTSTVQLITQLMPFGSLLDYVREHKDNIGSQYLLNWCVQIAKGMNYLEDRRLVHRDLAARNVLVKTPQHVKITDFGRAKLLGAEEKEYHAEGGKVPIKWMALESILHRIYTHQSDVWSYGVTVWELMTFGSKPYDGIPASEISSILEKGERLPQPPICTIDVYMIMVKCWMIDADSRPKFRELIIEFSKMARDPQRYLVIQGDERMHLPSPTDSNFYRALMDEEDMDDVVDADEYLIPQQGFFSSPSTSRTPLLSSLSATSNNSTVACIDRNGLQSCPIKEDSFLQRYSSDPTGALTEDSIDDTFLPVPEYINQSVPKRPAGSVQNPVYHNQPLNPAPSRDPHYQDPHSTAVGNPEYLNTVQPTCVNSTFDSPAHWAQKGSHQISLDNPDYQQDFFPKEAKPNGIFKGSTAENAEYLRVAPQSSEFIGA
How it was run: as §1

[4] = system: Ba/F3 cells expressing EGFR mutations; test: Cell proliferation assay, Ba/F3 cells expressing EGFR mutations (CellTiter-Glo, 72 hours); format: cell-based; details: Mus musculus, BaF3, 72 h, CellTiter-Glo
How it was run: (§2)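 Luminescent viable-cell counts were taken on a day 0 plate at dosing and again at endpoint. Proliferation was calculated as (sample − G0)/(DMSO − G0). Seeding was 5000 Ba/F3 or 500 PC-9 cells per well in RPMI1640, followed by overnight attachment and serial compound dilutions. The GI50 was fitted.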

[5] = molecular target: T4, EGFR[T790M/C797S/d746-750] (Homo sapiens, UniProt P00533, C797S/DEL746-750/T790M); test: Inhibition of EGFR[T790M/C797S/d746-750] biochemical enzymatic activity (HTRF); details: EGFR T790M-C797S-Del19, 1 mM ATP, 1 h, room temperature, read-out: IC50 (nM) @T790M - C797S - Del19
T4 construct: purchased Carna Bio
T4 sequence (P00533 with tags, fused parts or gaps DEL746-750/T790M/C797S limits assumed): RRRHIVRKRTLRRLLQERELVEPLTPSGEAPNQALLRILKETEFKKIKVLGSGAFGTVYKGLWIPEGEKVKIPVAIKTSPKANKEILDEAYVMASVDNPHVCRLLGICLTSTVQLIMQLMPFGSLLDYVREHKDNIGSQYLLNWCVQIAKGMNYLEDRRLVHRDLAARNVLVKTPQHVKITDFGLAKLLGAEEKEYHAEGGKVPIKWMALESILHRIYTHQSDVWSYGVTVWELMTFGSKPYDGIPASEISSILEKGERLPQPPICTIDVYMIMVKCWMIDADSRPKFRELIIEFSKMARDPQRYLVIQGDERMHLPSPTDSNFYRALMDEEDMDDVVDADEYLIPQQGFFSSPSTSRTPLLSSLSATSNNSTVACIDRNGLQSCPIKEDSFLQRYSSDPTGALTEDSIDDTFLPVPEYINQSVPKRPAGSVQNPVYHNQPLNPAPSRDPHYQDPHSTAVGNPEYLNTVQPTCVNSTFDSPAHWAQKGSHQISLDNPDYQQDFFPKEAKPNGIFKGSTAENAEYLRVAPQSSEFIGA
How it was run: as §1

[6] = molecular target: T5, EGFR (d746-750 C797S) (Homo sapiens, UniProt P00533, C797S/DEL746-750); test: Inhibition of EGFR (d746-750 C797S) biochemical enzymatic activity (HTRF); details: EGFR Del19-C797S, 1 mM ATP, 1 h, room temperature, read-out: IC50 (nM) @Del19-C797S
T5 construct: purchased signalchem
T5 sequence (P00533 with tags, fused parts or gaps DEL746-750/C797S limits assumed): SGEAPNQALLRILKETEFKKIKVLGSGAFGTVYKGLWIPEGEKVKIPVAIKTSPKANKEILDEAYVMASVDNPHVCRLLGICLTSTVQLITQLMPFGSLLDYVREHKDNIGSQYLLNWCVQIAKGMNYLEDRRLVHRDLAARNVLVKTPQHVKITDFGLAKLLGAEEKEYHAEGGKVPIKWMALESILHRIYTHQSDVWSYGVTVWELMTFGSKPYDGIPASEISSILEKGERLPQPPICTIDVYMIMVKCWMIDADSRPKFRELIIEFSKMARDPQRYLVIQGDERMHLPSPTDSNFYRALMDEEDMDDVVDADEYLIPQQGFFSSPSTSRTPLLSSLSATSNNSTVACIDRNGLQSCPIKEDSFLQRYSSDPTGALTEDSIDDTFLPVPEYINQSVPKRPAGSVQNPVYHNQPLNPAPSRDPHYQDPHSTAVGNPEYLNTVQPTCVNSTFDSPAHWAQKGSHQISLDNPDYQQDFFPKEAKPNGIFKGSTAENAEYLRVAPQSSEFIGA
How it was run: as §1

[7] = molecular target: T6, EGFR L858R/T790M (Homo sapiens, UniProt P00533, L858R/T790M); test: Inhibition of EGFR L858R/T790M biochemical enzymatic activity (HTRF); details: EGFR L858R-T790M, 1 mM ATP, 1 h, room temperature, read-out: IC50 (nM) @L858R-T790M
T6 construct: purchased Carna Bio
How it was run: as §1

[8] = molecular target: T7, EGFR wild type (Homo sapiens, UniProt P00533); test: Inhibition of EGFR wild type biochemical enzymatic activity (HTRF); details: EGFR WT, 1 mM ATP, 1 h, room temperature, read-out: IC50 (nM) @WT
T7 construct: purchased Carna Bio
How it was run: as §1

[9] = system: A-431; test: Cell proliferation GI50, A-431 cells (Table 6); format: cell-based; details: Homo sapiens, A-431, A-431 cells
[10] = molecular target: T8, EGFR[T790M/C797S/L858R] (Homo sapiens, UniProt P00533, C797S/L858R/T790M); test: Inhibition of EGFR[T790M/C797S/L858R] biochemical enzymatic activity (HTRF); details: EGFR T790M-C797S-L858R, 1 mM ATP, 1 h, room temperature, read-out: IC50 (nM) @T790M- C797S - L858R
T8 construct: purchased Carna Bio
T8 sequence (P00533 25-1210 T790M/C797S/L858R): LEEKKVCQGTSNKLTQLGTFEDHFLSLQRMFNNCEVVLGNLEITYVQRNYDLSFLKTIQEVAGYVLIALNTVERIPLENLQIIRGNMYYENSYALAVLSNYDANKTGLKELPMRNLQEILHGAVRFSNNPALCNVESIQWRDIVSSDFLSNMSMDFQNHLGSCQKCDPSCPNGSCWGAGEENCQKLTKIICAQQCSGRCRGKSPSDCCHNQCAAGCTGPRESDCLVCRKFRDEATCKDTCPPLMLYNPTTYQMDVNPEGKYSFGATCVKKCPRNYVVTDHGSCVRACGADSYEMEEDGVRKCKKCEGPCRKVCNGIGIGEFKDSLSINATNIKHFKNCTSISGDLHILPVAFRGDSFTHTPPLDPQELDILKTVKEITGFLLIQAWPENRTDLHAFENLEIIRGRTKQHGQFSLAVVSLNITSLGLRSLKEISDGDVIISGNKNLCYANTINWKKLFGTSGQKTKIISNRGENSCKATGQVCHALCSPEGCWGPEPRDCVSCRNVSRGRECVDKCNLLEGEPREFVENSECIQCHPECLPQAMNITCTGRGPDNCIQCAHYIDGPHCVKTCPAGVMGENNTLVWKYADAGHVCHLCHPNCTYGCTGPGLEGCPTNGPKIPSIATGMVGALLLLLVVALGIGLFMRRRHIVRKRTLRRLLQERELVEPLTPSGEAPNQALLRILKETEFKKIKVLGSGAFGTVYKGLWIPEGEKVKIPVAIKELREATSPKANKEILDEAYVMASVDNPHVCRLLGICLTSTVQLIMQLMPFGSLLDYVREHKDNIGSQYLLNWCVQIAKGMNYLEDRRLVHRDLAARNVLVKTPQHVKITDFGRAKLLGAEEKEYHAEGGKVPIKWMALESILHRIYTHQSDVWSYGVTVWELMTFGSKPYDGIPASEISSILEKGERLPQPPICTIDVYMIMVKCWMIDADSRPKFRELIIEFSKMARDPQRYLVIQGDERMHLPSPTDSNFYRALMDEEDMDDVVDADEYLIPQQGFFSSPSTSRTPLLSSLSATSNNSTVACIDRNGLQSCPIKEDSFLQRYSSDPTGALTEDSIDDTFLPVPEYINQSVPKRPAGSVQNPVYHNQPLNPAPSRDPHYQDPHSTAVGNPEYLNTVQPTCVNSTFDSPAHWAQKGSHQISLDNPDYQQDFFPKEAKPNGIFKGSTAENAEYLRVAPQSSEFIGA
How it was run: as §1

[11] = molecular target: T9, EGFR L858R (Homo sapiens, UniProt P00533, L858R); test: Inhibition of EGFR L858R biochemical enzymatic activity (HTRF); details: 1 mM ATP, 1 h, room temperature, read-out: IC50 (nM) @L858R
T9 construct: purchased Carna Bio
How it was run: as §1

[12] = system: PC-9; test: Cell proliferation assay, PC-9 cells (CellTiter-Glo, 72 hours); format: cell-based; details: Homo sapiens, PC-9, 72 h, PC9 cells, CellTiter-Glo, read-out: PC9 GI50
How it was run: as §2

[13] = BaF3 cells, EGFR DEL19-C797S, read-out: DEL19-C797S/BaF3 GI50
[14] = BaF3 cells, EGFR DEL19-T790-C797S, read-out: DEL19-T790-C797S/BaF3 GI50
[15] = BaF3 cells, EGFR L858R, read-out: L858R/BaF3 GI50
[16] = BaF3 cells, EGFR L858R-C797S, read-out: L858R-C797S/BaF3 GI50
[17] = BaF3 cells, EGFR L858R-T790-C797S, read-out: L858R-T790-C797S/BaF3 GI50
[18] = BaF3 cells, EGFR L858R-T790M, read-out: L858R-T790M/BaF3 GI50
[19] = EGFR DEL19-T790M, read-out: DEL19-T790M GI50

Row | IC50 [1] [nM] | IC50 [2] [nM] | IC50 [3] [nM] | GI50 [4, 13] [nM] | GI50 [4, 14] [nM] | GI50 [4, 15] [nM] | GI50 [4, 16] [nM] | GI50 [4, 17] [nM] | GI50 [4, 18] [nM] | GI50 [4, 19] [nM] | IC50 [5] [nM] | IC50 [6] [nM] | IC50 [7] [nM] | IC50 [8] [nM] | GI50 [9] [nM] | IC50 [10] [nM] | IC50 [11] [nM] | GI50 [12] [nM] | SMILES
1 | 1530 | 1670 | > 5000 | 204 | 1050 | 1310 | 919 | 1540 | 795 | 968 | 1230 | 1870 | > 5000 | > 5000 | 1780 | > 5000 | > 5000 | 403 | CCN1CCOc2c(cnn2C)-c2cc(cn(C)c2=O)C(=O)Nc2nc3ccccc3n2C(C)C1 (stereo not drawn) [Example A6, 10-Ethyl-5,12,26-trimethyl-7-oxa-4,5,10,13,20,22,26-heptaazapentacyclo[22.3.1.0^{2,6}.0^{13,21}.0^{14,19}]octacosa-1(28),2(6),3,14,16,18,20,24-octaene-23,27-dione]
2 | 290 | 368 | 3550 | 93 | 401 | 180 | 332 | 214 | 977 | 256 | 226 | 256 | > 5000 | > 5000 | 3880 | > 5000 | > 5000 | 180 | Cn1ncc2c1OCCN1CCCCC(C1)n1c(nc3ccccc31)NC(=O)c1cc-2c(=O)n(C)c1 (stereo not drawn) [Example A8, 15,21-Dimethyl-23-oxa-2,9,11,15,20,21,26-heptaazahexacyclo[24.4.1.1^{13,17}.0^{2,10}.0^{3,8}.0^{18,22}]dotriaconta-3,5,7,9,13,17(32),18(22),19-octaene-12,16-dione]
3 | 198 | 264 | > 5000 | 55 | 405 | 608 | 515 | 607 | 264 | 364 | 316 | 536 | > 5000 | > 5000 | 3020 | > 5000 | > 5000 | 211 | Cn1ncc2c1OCCN1CC3(CCCC1C3)n1c(nc3ccc(N4CCOCC4)cc31)NC(=O)c1cc-2c(=O)n(C)c1 (stereo not drawn) [Example A9, 15,21-Dimethyl-5-(morpholin-4-yl)-23-oxa-2,9,11,15,20,21,26-heptaazaheptacyclo[24.4.1.1^{1,27}.1^{13,17}.0^{2,10}.0^{3,8}.0^{18,22}]tritriaconta-3,5,7,9,13,17(33),18(22),19-octaene-12,16-dione]
4 | 164 | 189 | 1950 | 33 | 368 | 309 | 291 | 260 | 219 | 323 | 166 | 173 | 2630 | > 5000 | 5140 | 4400 | 2150 | 128 | Cn1ncc2c1OCCN1CCCC(C)(C1)n1c(nc3ccc(N4CCOCC4)cc31)NC(=O)c1cc-2c(=O)n(C)c1 (stereo not drawn) [Example A10, 1,15,21-trimethyl-5-(morpholin-4-yl)-23-oxa-2,9,11,15,20,21,26-heptaazahexacyclo[24.3.1.1^{13,17}.0^{2,10}.0^{3,8}.0^{18,22}]hentriaconta-3,5,7,9,13,17(31),18(22),19-octaene-12,16-dione]
5 | 89 | 144 | 389 | 39 | 265 | 72 | 159 | 122 | 116 | 197 | 105 | 119 | 476 | > 5000 | 3130 | 486 | 482 | 149 | Cn1ncc2c1OCCN1CC(CCC1(C)C)n1c(nc3ccc(N4CCOCC4)cc31)NC(=O)c1cc-2c(=O)n(C)c1 (stereo not drawn) [Example A12, 15,21,27,27-Tetramethyl-5-(morpholin-4-yl)-23-oxa-2,9,11,15,20,21,26-heptaazahexacyclo[24.3.1.1^{13,17}.0^{2,10}.0^{3,8}.0^{18,22}]hentriaconta-3,5,7,9,13,17(31),18(22),19-octaene-12,16-dione]
6 | 757 | 932 | > 5000 | 148 | 192 | 234 | 232 | 280 | 411 | 192 | 728 | 780 | > 5000 | > 5000 | 357 | > 5000 | > 5000 | 292 | Cn1ncc2c1OCCN1CCCCC(C)(C1)n1c(nc3ccc(N4CCOCC4)cc31)NC(=O)c1cc-2c(=O)n(C)c1 (stereo not drawn) [Example A13, 1,15,21-Trimethyl-5-(morpholin-4-yl)-23-oxa-2,9,11,15,20,21,26heptaazahexacyclo[24.4.1.1^{13,17}.0^{2,10}.0^{3,8}.0^{18,22}]dotriac onta-3,5,7,9,13,17(32),18(22),19-octaene-12,16-dione]
7 | 132 | 144 | > 5000 | 57 | 356 | 305 | 188 | 459 | 866 | 462 | 59 | 63 | > 5000 | > 5000 | 2240 | > 5000 | > 5000 | 152 | CCn1cc2cc(c1=O)-c1cnn(C)c1OCCC[C@@H](C)Cn1c(nc3ccc(N4CCN(C)CC4)cc31)NC2=O [Example A14, (11R)-26-Ethyl-5,11-dimethyl-16-(4-methylpiperazin-1-yl)-7-oxa-4,5,13,20,22,26-hexaazapentacyclo[22.3.1.0^{2,6}.0^{13,21}.0^{14,19}]octacosa-1(28),2(6),3,14,16,18,20,24-octaene-23,27-dione]
